Measurements as given in ChEMBL document CHEMBL1201862, “PubChem BioAssay data set” (2004).
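Each compound was tested at five concentrations against cells in 96-well plates for 48 hours. GI50 = concentration required for 50% inhibition of growth.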 Active and inactive are the calls of the source. Rule as the data show it: active = GI50 up to about 1.1 µM and inactive = higher.

What was measured:
Assay in all cases: growth of human tumour cells (NCI), 48 h
NCI-H460 = system: NCI-H460
HCT-116 = system: HCT-116
SNB-19 = system: SNB-19
SN12C = system: SN12C
K562 = system: K562
SF-268 = system: SF-268
M19-MEL = system: M19-MEL
SF-539 = system: SF-539
SF-295 = system: SF-295
OVCAR-3 = system: OVCAR-3
CAKI-1 = system: CAKI-1
SW-620 = system: SW-620
HT-29 = system: HT-29
DMS-273 = system: DMS-273
RPMI-8226 = system: RPMI-8226
OVCAR-5 = system: OVCAR-5
PC-3 = system: PC-3
OVCAR-4 = system: OVCAR-4
T47D = system: T47D
EKVX = system: EKVX

| Compound | GI50 (NCI-H460) | GI50 (HCT-116) | GI50 (SNB-19) | GI50 (SN12C) | GI50 (K562) | GI50 (SF-268) | GI50 (M19-MEL) | GI50 (SF-539) | GI50 (SF-295) | GI50 (OVCAR-3) | GI50 (CAKI-1) | GI50 (SW-620) | GI50 (HT-29) | GI50 (DMS-273) | GI50 (RPMI-8226) | GI50 (OVCAR-5) | GI50 (PC-3) | GI50 (OVCAR-4) | GI50 (T47D) | GI50 (EKVX) |
| --- | --- | --- | --- | --- | --- | --- | --- | --- | --- | --- | --- | --- | --- | --- | --- | --- | --- | --- | --- | --- |
| CC1(CO)OC(n2cc(C(=O)NC(=O)OCc3ccccc3)c(=O)[nH]c2=O)CC1O (stereo not drawn) | > 100 µM (inactive) | > 100 µM (inactive) | > 100 µM (inactive) | > 100 µM (inactive) | > 100 µM (inactive) | > 100 µM (inactive) | > 100 µM (inactive) | > 100 µM (inactive) | > 100 µM (inactive) | > 100 µM (inactive) | > 100 µM (inactive) | > 100 µM (inactive) | > 100 µM (inactive) | > 100 µM (inactive) | > 100 µM (inactive) | – | – | – | – | – |
| COc1cc(C2c3cc4c(cc3[C@H](OCCN(C)C)[C@@H]3COC(=O)C23)OCO4)cc(OC)c1O (stereo partly drawn) | < 0.01 µM (active) | 0.753 µM (active) | 0.31 µM (active) | 0.0624 µM (active) | 0.713 µM (active) | 0.194 µM (active) | 0.373 µM (active) | 0.0671 µM (active) | 0.0681 µM (active) | 1.46 µM (inactive) | 0.0519 µM (active) | 0.422 µM (active) | 0.621 µM (active) | 0.0385 µM (active) | 0.938 µM (active) | 0.738 µM (active) | 0.805 µM (active) | 1.84 µM (inactive) | 0.369 µM (active) | 0.485 µM (active) |
| O=[N+]([O-])c1ccc(C2=NN(c3ccccc3)C[N+](c3ccc(Br)cc3)=N2)cc1 | > 100 µM (inactive) | 89.5 µM (inactive) | > 100 µM (inactive) | > 100 µM (inactive) | 70.3 µM (inactive) | 60.5 µM (inactive) | > 100 µM (inactive) | 46 µM (inactive) | 75.5 µM (inactive) | – | > 100 µM (inactive) | > 100 µM (inactive) | > 100 µM (inactive) | > 100 µM (inactive) | > 100 µM (inactive) | > 100 µM (inactive) | – | > 100 µM (inactive) | – | > 100 µM (inactive) |
| COc1ccc(O)c(C(=O)CCC(=O)O)c1 | > 100 µM (inactive) | – | > 100 µM (inactive) | > 100 µM (inactive) | > 100 µM (inactive) | > 100 µM (inactive) | > 100 µM (inactive) | > 100 µM (inactive) | > 100 µM (inactive) | > 10 µM (inactive) | – | > 100 µM (inactive) | > 100 µM (inactive) | > 100 µM (inactive) | > 100 µM (inactive) | > 100 µM (inactive) | – | > 100 µM (inactive) | – | > 100 µM (inactive) |
| O=C(O/N=C1/CCC/C1=C\c1ccccc1)c1ccc(Cl)c(Cl)c1 | > 100 µM (inactive) | > 100 µM (inactive) | – | > 100 µM (inactive) | > 100 µM (inactive) | > 100 µM (inactive) | > 100 µM (inactive) | > 100 µM (inactive) | > 100 µM (inactive) | > 100 µM (inactive) | > 100 µM (inactive) | > 100 µM (inactive) | > 100 µM (inactive) | > 100 µM (inactive) | > 100 µM (inactive) | > 100 µM (inactive) | – | 35 µM (inactive) | – | > 100 µM (inactive) |
| CCN1CCC(O)(c2ccc(C)cc2)C(C(=O)c2ccc(C)cc2)C1 (stereo not drawn) | > 52.6 µM (inactive) | 16.7 µM (inactive) | > 80.7 µM (inactive) | 14.9 µM (inactive) | 32.1 µM (inactive) | > 53 µM (inactive) | > 47.3 µM (inactive) | > 43.5 µM (inactive) | > 100 µM (inactive) | 21.9 µM (inactive) | 17.2 µM (inactive) | 16.8 µM (inactive) | 19.8 µM (inactive) | 19.8 µM (inactive) | 12.9 µM (inactive) | 20.2 µM (inactive) | – | 21.5 µM (inactive) | – | 17.3 µM (inactive) |
| C/C(CCn1[nH]c(=O)ccc1=O)=N\N=C(N)N | > 100 µM (inactive) | > 100 µM (inactive) | > 100 µM (inactive) | > 100 µM (inactive) | > 100 µM (inactive) | > 100 µM (inactive) | > 100 µM (inactive) | > 100 µM (inactive) | > 100 µM (inactive) | > 100 µM (inactive) | > 100 µM (inactive) | > 100 µM (inactive) | > 100 µM (inactive) | > 100 µM (inactive) | > 100 µM (inactive) | > 100 µM (inactive) | – | > 100 µM (inactive) | – | > 100 µM (inactive) |
| NC1=C(NC(=O)Cc2ccccc2F)C(=O)c2ccccc2C1=O | 47.2 µM (inactive) | 44 µM (inactive) | 35.8 µM (inactive) | 90.6 µM (inactive) | > 100 µM (inactive) | 34.6 µM (inactive) | 4.5 µM (inactive) | 26.9 µM (inactive) | 32.6 µM (inactive) | 8.26 µM (inactive) | > 100 µM (inactive) | 97.3 µM (inactive) | 46.7 µM (inactive) | 97.7 µM (inactive) | > 100 µM (inactive) | – | – | 42 µM (inactive) | – | 59.3 µM (inactive) |
| Nc1nc(CCl)nc(Nc2ccccc2)n1 | 17.3 µM (inactive) | 19.5 µM (inactive) | 46.6 µM (inactive) | – | > 10 µM (inactive) | 19.2 µM (inactive) | 29.4 µM (inactive) | 25 µM (inactive) | 23.8 µM (inactive) | 17.2 µM (inactive) | 12.4 µM (inactive) | 21.3 µM (inactive) | 12.5 µM (inactive) | 4.16 µM (inactive) | 4.1 µM (inactive) | 19.9 µM (inactive) | – | 17.4 µM (inactive) | – | – |
| Cn1c(NC(=O)NC23CC4CC(CC(C4)C2)C3)nc2ccccc21 | 38.4 µM (inactive) | 15.3 µM (inactive) | 95.1 µM (inactive) | 68.5 µM (inactive) | > 100 µM (inactive) | 28.5 µM (inactive) | 57.5 µM (inactive) | 81.1 µM (inactive) | 12.6 µM (inactive) | > 100 µM (inactive) | 48.6 µM (inactive) | > 100 µM (inactive) | > 100 µM (inactive) | 26.5 µM (inactive) | > 100 µM (inactive) | > 100 µM (inactive) | – | 4.22 µM (inactive) | – | 83.8 µM (inactive) |
| O=S(=O)(SCCCCSS(=O)(=O)c1ccc(Cl)cc1)c1ccc(Cl)cc1 | 14.4 µM (inactive) | 11 µM (inactive) | 10.2 µM (inactive) | 9.23 µM (inactive) | 20 µM (inactive) | 10.5 µM (inactive) | 14.8 µM (inactive) | 12.4 µM (inactive) | 3.92 µM (inactive) | 14.7 µM (inactive) | 12.7 µM (inactive) | 9.46 µM (inactive) | 17.3 µM (inactive) | 10.3 µM (inactive) | 4.39 µM (inactive) | 16.7 µM (inactive) | – | 15.1 µM (inactive) | – | 4.67 µM (inactive) |
| COc1ccc(/C=C/C(=O)c2sc(-n3nc(-c4ccccc4)cc3-c3ccccc3)nc2C)cc1 | > 10 µM (inactive) | > 10 µM (inactive) | > 10 µM (inactive) | 75.9 µM (inactive) | 52.2 µM (inactive) | > 10 µM (inactive) | > 10 µM (inactive) | > 10 µM (inactive) | > 10 µM (inactive) | 62.5 µM (inactive) | 55.2 µM (inactive) | > 10 µM (inactive) | 30.5 µM (inactive) | > 10 µM (inactive) | 39.7 µM (inactive) | > 10 µM (inactive) | – | 43.6 µM (inactive) | – | 6.25 µM (inactive) |
| CC(C)CCCC(C)C1CCC2C3CC([N+](=O)[O-])=C4CC(O)CCC4(C)C3CCC12C (stereo not drawn) | – | 14.8 µM (inactive) | – | 18.2 µM (inactive) | 9.62 µM (inactive) | 24.3 µM (inactive) | 27.6 µM (inactive) | 11.5 µM (inactive) | 14.2 µM (inactive) | 23.9 µM (inactive) | 24.1 µM (inactive) | 25.9 µM (inactive) | 17.9 µM (inactive) | 12.6 µM (inactive) | 5.02 µM (inactive) | – | – | 21.4 µM (inactive) | – | 27 µM (inactive) |
